This series relates to humanized mouse model of GvHD. The series can be described thus: Ex vivo-treated hPBMCs transferred into NSG mice, assessment of GvHD. The class given is in vivo. The method, then: Animal protocols were approved by the Institutional Animal Care and use Committee of the University of Massachusetts Amherst. […] 10×10^6 treated hPBMCs in 150 μl of PBS were injected into mice via the tail vein.
Clinical score was generated by adding grades for five criteria.
IL-2 and IFNγ cytokine levels in plasma collected from NSG mice were determined by using human IFNγ and IL-2 Flex Sets (BD Biosciences). Data were acquired using a Fortessa 5 Laser Flow Cytometer (BD Biosciences) and analyzed using FCAP array software (Soft Flow Inc.).

As to `CC(=O)c1c(O)c(C)c(O)c(Cc2c(O)c3c(c(C(=O)/C=C/c4ccccc4)c2O)OC(C)(C)C=C3)c1O` [rottlerin, Rottlerin], where the note is “hPBMCs pre-treated, no human cells detected on day +70”, the “mice without overt signs of disease” value is recorded as “Two of three”. The “toxicity to hPBMCs” value (pre-treated hPBMCs) is listed as “cytotoxic effects on hPBMCs”.
